{"source": "paper PMC6156363", "about": "“The Modulatory Role of CYP3A4 in Dictamnine-Induced Hepatotoxicity” (Frontiers in Pharmacology, 2018)", "key": {"CYP3A11": {"tested_on": "CYP3A11", "assay": "Hepatic CYP3A11 expression in mice by Q-PCR and Western blot", "format": "in vivo, mouse", "settings": "mice liver, KTZ 75 mg/kg i.p., vs control"}, "ICR mice [1]": {"tested_on": "ICR mice", "assay": "Liver injury in mice, group B (KTZ inhibition): liver/body weight, ALT, AST, H&E", "format": "in vivo", "settings": "individual mouse, liver H&E", "experimental": "(§1) Male adult ICR mice (20 ± 2 g) were supplied by the Model Animal Research Center of Nanjing University (Nanjing, China). All experiments and animal care were conducted in accordance with the Provision and General Recommendation of Chinese Experimental Animals Administration Legislation and were approved by the Science and Technology Department of Jiangsu Province [license number: SYXK (SU) 2016-0011]. The mice were housed in a controlled temperature and humidity of 22 ± 2°C and 55 ± 5%, respectively, and maintained on a 12 h light/dark cycle with free access to food and water. Mice were fastened for 12 h and free to water before treatment.\n(§2) Mice were randomly assigned into two groups for different treatment. The protocol was conducted as previously described with minor modification ([Iida et al., 2015]; [Li W. et al., 2016]). […] Blood and liver tissues were collected in 24 h following treatment. All the livers were quickly removed and the left lateral liver lobes were used for histopathological examinations.\nThe collected blood samples were allowed to clot at room temperature, followed by centrifugation at 4°C, 1,000 × g for 10 min. The resulting sera were immediately sent for alanine transaminase (ALT) and aspartate aminotransferase (AST) assays to the laboratory in Jiangsu Province Hospital of Traditional Chinese and Western Medicine (Nanjing, China) on ice. The testing laboratory was authenticated with ISO15189 and the assay was performed in a Roche Cobas 8000 (ISE/701/701/502) automatic biochemical analyzer. Liver tissues were immediately fixed in 4% paraformaldehyde for at least 24 h, then paraffin-processed, and sectioned into 3-μm thick slices. The sections were stained with hematoxylin and eosin (H&E), and finally evaluated by a pathologist using an optical microscope."}, "[2]": {"tested_on": "primary human hepatocytes (PHH)", "assay": "MTT cytotoxicity in primary human hepatocytes, with or without KTZ or RIF pre-incubation", "format": "cell-based", "settings": "1 mM DCF", "experimental": "All of the compounds were dissolved in DMSO with the final concentration of DMSO was less than 0.2% in the incubation system. The MTT assay was employed and the optical density (OD) value was measured at 490 nm with a microplate reader (BioTek Instruments, Winooski, VT, United States)."}, "CYP3A4 OE HepG2 cells": {"tested_on": "CYP3A4 OE HepG2 cells", "assay": "MTT cytotoxicity in stable CYP3A4 over-expressed HepG2 cells", "format": "cell-based, human", "settings": "DCF 400–2000 μM", "experimental": "(§3) Cells were allowed to grow in the selection medium for 4 weeks, at which time individual clonal expansions (clones) were visible. Each clone was transferred and tested for enzymatic activity by a quantitative polymerase chain reaction (Q-PCR), western blot analysis and determining hydroxylation of testosterone.\n(§4) The neutral red assay was performed to assess cell viability of NIH3T3 cells. […] After incubation, the neutral red reagent was added following the manufacturer’s instruction. The OD value was detected at 570 nm. The WT and CYP3A4 OE HepG2 and L02 were treated in the same manner as NIH3T3 cells, and cell viability was measured by MTT assay. Cell viability was calculated with the following equation (Eq. 1). OD value is presented as the mean ± SD from three independent replicate experiments.\n(§5) Cell viability (%) =[…]"}, "CYP3A4 OE L02 cells": {"tested_on": "CYP3A4 OE L02 cells", "assay": "MTT cytotoxicity in stable CYP3A4 over-expressed L02 cells", "format": "cell-based, human", "settings": "DCF 400–2000 μM", "experimental": "as §3, §4, §5"}, "ICR mice [3]": {"tested_on": "ICR mice", "assay": "Liver injury in mice, group A (DEX induction): liver/body weight, ALT, AST, H&E", "format": "in vivo", "settings": "individual mouse, liver H&E", "experimental": "as §1, §2\nThe collected blood samples were allowed to clot at room temperature, followed by centrifugation at 4°C, 1,000 × g for 10 min. […] The sections were stained with hematoxylin and eosin (H&E), and finally evaluated by a pathologist using an optical microscope."}}, "note": "Where “and” joins values, the source holds several entries; their conditions need not be identical. Equal values may be shown once.", "data": [{"smiles": "CC(=O)N1CCN(c2ccc(OCC3COC(Cn4ccnc4)(c4ccc(Cl)cc4Cl)O3)cc2)CC1", "note": "(stereo not shown) [KTZ, ketoconazole]", "values": [{"measurement": "decrease in CYP3A11 expression", "setting": "CYP3A11", "value": "about 20%"}, {"measurement": "Inflammatory cells (histopathologic score)", "setting": "ICR mice [1]", "value": 0.5}, {"measurement": "Scores (histopathologic, total)", "setting": "ICR mice [1]", "value": "0 and 0.5"}, {"measurement": "hepatocytes Degeneration (histopathologic score)", "setting": "ICR mice [1]", "value": 0.5}]}, {"smiles": "O=C(O)Cc1ccccc1Nc1c(Cl)cccc1Cl", "note": "[DCF, diclofenac sodium]", "values": [{"measurement": "cell viability of PHH in the presence of KTZ", "setting": "[2]; 24 h, KTZ 10 μM", "value": "remarkably increased"}, {"measurement": "cell viability of PHH pre-incubated with RIF", "setting": "[2]; RIF 20 μM", "value": "significantly decreased"}, {"measurement": "cell viability in CYP3A4 OE HepG2 cells compared with WT cells", "setting": "CYP3A4 OE HepG2 cells", "value": "greatly decreased"}, {"measurement": "cell viability in CYP3A4 OE L02 cells compared with WT cells", "setting": "CYP3A4 OE L02 cells", "value": "greatly decreased"}]}, {"smiles": "C[C@@H]1C[C@H]2[C@@H]3CCC4=CC(=O)C=C[C@]4(C)[C@@]3(F)[C@@H](O)C[C@]2(C)[C@@]1(O)C(=O)CO", "note": "[DEX, Dexamethasone]", "values": [{"measurement": "Congestion (histopathologic score)", "setting": "ICR mice [3]", "value": 1}, {"measurement": "Scores (histopathologic, total)", "setting": "ICR mice [3]", "value": "0 and 1"}]}]}
